In the assay the test system is barnyard grass seeds. Nature of the assay: Petri dish seed germination method: inhibition of root and stem growth of barnyard grass. Type of assay: in vivo. The settings on record: 96 hours incubation.

Experimental findings from patent US20210161131A1, “cis-p-Menthane-1,8-Di-secondary Amine Compounds as well as Their Preparation Methods and Application in Weed Control” (RESEARCH INSTITUTE OF FORESTRY NEW TECHNOLOGY, CHINESE …, priority 2019, published 2021) are described below.

For the compound `CC1(N=Cc2ccc(C(F)(F)F)cc2)CCC(C(C)(C)N=Cc2ccc(C(F)(F)F)cc2)CC1` (stereo not drawn) [cis-p-menthane-1,8-bis-(4-trifluoromethylbenzyl)Schiff base, reference compound], the “inhibition rate on the stem growth of barnyard grass seeds” value (shortened to “inhibition rate on the stem growth”) by setting is: (0.3125 mmol/L) 20.6%; (0.625 mmol/L) 30.9%; (1.25 mmol/L) 14.6%; (2.5 mmol/L) 19.5%; (5 mmol/L) 31.1%. In addition, the “inhibition rate on the root growth of barnyard grass seeds” value (from here on “inhibition rate on the root growth”) is, setting by setting: (0.625 mmol/L) 0.8%; (1.25 mmol/L) 17.5%; (2.5 mmol/L) 7.1%; (5 mmol/L) 48.4%.
As to `CC1(NCc2ccc(C(F)(F)F)cc2)CCC(C(C)(C)NCc2ccc(C(F)(F)F)cc2)CC1` (stereo not drawn) [cis-p-menthane-1,8-bis-(4-trifluoromethylbenzyl)amine], the “inhibition rate on the root growth” value (0.15625 mmol/L) is reported as 1.0%; the “inhibition rate on the root growth” value (0.3125 mmol/L) was determined as 62.8%; the “inhibition rate on the root growth” value (0.625 mmol/L) was found to be 82.3%; the “inhibition rate on the root growth” value (1.25 mmol/L) amounted to 86.1%; the “inhibition rate on the root growth” value (2.5 mmol/L) came to 100.0%; the “inhibition rate on the root growth” value (5 mmol/L) stood at 100.0%. The “inhibition rate on the stem growth” value reads like this: (0.15625 mmol/L) 11.6%; (0.3125 mmol/L) 42.2%; (0.625 mmol/L) 55.1%; (1.25 mmol/L) 67.0%; (2.5 mmol/L) 83.4%; (5 mmol/L) 78.5%.
Consider `CC1(NCc2ccc(Br)o2)CCC(C(C)(C)NCc2ccc(Br)o2)CC1` (stereo not drawn) [cis-p-menthane-1,8-bis-(5-bromofuran-2-methyl)amine], for which the “inhibition rate on the root growth” value is 42.2% (0.15625 mmol/L); 39.6% (0.3125 mmol/L); 54.8% (0.625 mmol/L); 61.5% (1.25 mmol/L); 84.4% (2.5 mmol/L); 90.7% (5 mmol/L). Moreover, the “inhibition rate on the stem growth” value by setting is: (0.15625 mmol/L) 10.1%; (0.3125 mmol/L) 5.6%; (0.625 mmol/L) 11.6%; (1.25 mmol/L) 30.3%; (2.5 mmol/L) 50.5%; (5 mmol/L) 71.8%.
On to `Cc1ccc(CNC(C)(C)[C@H]2CC[C@@](C)(NCc3ccc(C)o3)CC2)o1` [cis-p-menthane-1,8-bis-(5-methylfuran-2-methyl)amine], for which the “inhibition rate on the root growth” value reads like this: (0.15625 mmol/L) 23.1%; (0.3125 mmol/L) 41.3%; (0.625 mmol/L) 24.7%; (1.25 mmol/L) 50.3%; (2.5 mmol/L) 64.4%; (5 mmol/L) 95.5%. In addition, the “inhibition rate on the stem growth” value (0.15625 mmol/L) worked out at 7.2%; the “inhibition rate on the stem growth” value (0.3125 mmol/L) is on record as 12.5%; the “inhibition rate on the stem growth” value (0.625 mmol/L) worked out at 6.8%; the “inhibition rate on the stem growth” value (1.25 mmol/L) worked out at 17.1%; the “inhibition rate on the stem growth” value (2.5 mmol/L) came to 36.5%; the “inhibition rate on the stem growth” value (5 mmol/L) was determined as 79.8%.
